Type in all cases: cell-based
Assay [1] has as its target T1, human TLR2 (Homo sapiens (Human), UniProt O60603). Kind of assay: HEK-Blue hTLR2 antagonism assay (SEAP reporter), agonist Pam3CSK4. Particulars: HEK-Blue hTLR2 cells; Pam3CSK4 (TLR1/2 agonist) at approx. 3×EC50; 18 h; 8-point dilutions. The protocol:
(§1) Synthetic diacylated lipoprotein (Pam2CSK4, TLR2/6 agonist) and synthetic triacylated lipoprotein (Pam3CSK4, TLR1/2 agonist) were obtained from InvivoGen and were dissolved in endotoxin-free water to a concentration 1 mg/mL, vortexed until complete solubilization, and stored in aliquots at −20° C. Prior to addition to cells, an aliquot of the dissolved ligand was vortexed shortly and then was diluted in medium to 25 ng/mL Pam2CSK4 or 1000 ng/mL Pam3CSK4.
(§2) Test compounds were solubilized fresh to 10-20 mM stocks in DMSO and sonicated for 5-10 minutes in a water bath sonicator. Serial dilutions were prepared in DMSO, and then diluted in medium. The final concentration of DMSO used in the assay was 1%.
(§3) HEK-Blue hTLR2 reporter cells (InvivoGen) are HEK-293 cells stably expressing both the human TLR2 gene and a secreted embryonic alkaline phosphatase (SEAP) reporter construct downstream of NFκB promotor sites. HEK-Blue hTLR2 reporters were cultured according to manufacturer's protocol using Dulbecco's Modified Eagle Medium (DMEM; Gibco) containing 1× GlutaMax (Gibco), 10% heat-inactivated Fetal Bovine Serum (Gibco), Pen-Strep (50 U/mL penicillin, 50 μg/mL streptomycin, Gibco), 100 μg/mL Normocin (InvivoGen), and the selective antibiotic, lx HEK-Blue Selection (InvivoGen). Quanti-Blue reagent (InvivoGen) for detection and quantification of secreted alkaline phosphatase was dissolved in 100 mL of endotoxin-free water, warmed to 37° C. for 30 minutes and then filtered using a 0.2 μm membrane.
(§4) On day 1, 50 μL of each test compound dilution in duplicates or a vehicle control was added to each well of a 96-well plate followed by addition of 150 μL of HEK-Blue hTLR2 cell suspension (1×10^5 cells/well) and incubated at 37° C./5% CO2 for 2 h. Next, 50 μL of an approximate 3×EC50 concentration of each agonist (Pam2CSK4 or Pam3CSK4) was added to the wells containing test compounds or the vehicle control. The plates were then incubated at 37° C./5% CO2 for 18 h. For each assay run, non-treated HEK-Blue hTLR2 cells were treated with serial dilutions of agonists to determine EC50 values for the respective run.
(§5) On day 2, secreted alkaline phosphatase (SEAP) activity was detected in cell culture supernatants. In brief, 20 μL was collected from each well and transferred to a 96-well plate. Next, 200 μL of Quanti-Blue detection reagent was added to each well. Plates were incubated at room temperature for 15 min and SEAP activity was assessed by spectrophotometer OD reading at 655 nm. […] IC50 values were calculated based on 8-point dilutions for each compound.

Assay [2] concerns the target T1, human TLR2. Kind of assay: HEK-Blue hTLR2 antagonism assay (SEAP reporter), agonist Pam2CSK4. Particulars: HEK-Blue hTLR2 cells; Pam2CSK4 (TLR2/6 agonist) at approx. 3×EC50; 18 h; 8-point dilutions. The method, then:
as §1, §2, §3, §4, §5

Another assay concerns the target human TLR9 (Homo sapiens (Human), UniProt Q9NR96). Kind of assay: HEK-Blue hTLR9 antagonism assay (SEAP reporter), agonist ODN 2006. Particulars: HEK-Blue hTLR9 cells; ODN 2006 (TLR9 agonist) at approx. 3×EC50; 18 h; exact values 8-point, approximate (~ or <) 4-point dilutions; read-out: IC50 (μM) with ODN2006. The protocol:
Synthetic ODNs (ODN 2006 (ODN 7909), class B CpG oligonucleotide, TLR9 agonist) was obtained from InvivoGen and was dissolved in endotoxin-free water to a concentration 500 μM, vortexed until complete solubilization, and stored in aliquots at −20° C. Prior to addition to cells, an aliquot of the dissolved ligand was vortexed shortly and then was diluted in medium to 50 μM.
as §2
as §3, with “hTLR9” for “hTLR2”, “TLR9” for “TLR2”, “hTLR9 cells” for “hTLR2 reporters”, “antibiotics, 10 μg/mL Blasticidin (InvivoGen), and 100 μg/mL Zeocin” for “antibiotic, lx HEK-Blue Selection”
as §4, with “hTLR9” for “hTLR2”, “TLR9 agonist, ODN 2006,” for “each agonist (Pam2CSK4 or Pam3CSK4)”, “vehicle-treated” for “non-treated”, “agonist” for “agonists”
On day 2, secreted alkaline phosphatase (SEAP) activity was detected in cell culture supernatants. In brief, 30 μL was collected from each well and transferred to a 96-well plate. Next, 200 μL of Quanti-Blue detection reagent was added to each well. Plates were incubated at 37° C. for 60 min. and SEAP activity was assessed by spectrophotometer OD reading at 655 nm. […] Exact IC50 values were calculated based on 8-point dilutions for each compound. Approximate IC50 values (˜ or <) were calculated based on 4-point dilutions for each compound.

Values joined by “and” are separate entries in the source; they are usually repeats but may differ in a detail not shown here. Identical values can stand only once.

The term IC50 denotes the concentration that gives 50% inhibition.

Sequence of human TLR9 (Q9NR96 26-1032): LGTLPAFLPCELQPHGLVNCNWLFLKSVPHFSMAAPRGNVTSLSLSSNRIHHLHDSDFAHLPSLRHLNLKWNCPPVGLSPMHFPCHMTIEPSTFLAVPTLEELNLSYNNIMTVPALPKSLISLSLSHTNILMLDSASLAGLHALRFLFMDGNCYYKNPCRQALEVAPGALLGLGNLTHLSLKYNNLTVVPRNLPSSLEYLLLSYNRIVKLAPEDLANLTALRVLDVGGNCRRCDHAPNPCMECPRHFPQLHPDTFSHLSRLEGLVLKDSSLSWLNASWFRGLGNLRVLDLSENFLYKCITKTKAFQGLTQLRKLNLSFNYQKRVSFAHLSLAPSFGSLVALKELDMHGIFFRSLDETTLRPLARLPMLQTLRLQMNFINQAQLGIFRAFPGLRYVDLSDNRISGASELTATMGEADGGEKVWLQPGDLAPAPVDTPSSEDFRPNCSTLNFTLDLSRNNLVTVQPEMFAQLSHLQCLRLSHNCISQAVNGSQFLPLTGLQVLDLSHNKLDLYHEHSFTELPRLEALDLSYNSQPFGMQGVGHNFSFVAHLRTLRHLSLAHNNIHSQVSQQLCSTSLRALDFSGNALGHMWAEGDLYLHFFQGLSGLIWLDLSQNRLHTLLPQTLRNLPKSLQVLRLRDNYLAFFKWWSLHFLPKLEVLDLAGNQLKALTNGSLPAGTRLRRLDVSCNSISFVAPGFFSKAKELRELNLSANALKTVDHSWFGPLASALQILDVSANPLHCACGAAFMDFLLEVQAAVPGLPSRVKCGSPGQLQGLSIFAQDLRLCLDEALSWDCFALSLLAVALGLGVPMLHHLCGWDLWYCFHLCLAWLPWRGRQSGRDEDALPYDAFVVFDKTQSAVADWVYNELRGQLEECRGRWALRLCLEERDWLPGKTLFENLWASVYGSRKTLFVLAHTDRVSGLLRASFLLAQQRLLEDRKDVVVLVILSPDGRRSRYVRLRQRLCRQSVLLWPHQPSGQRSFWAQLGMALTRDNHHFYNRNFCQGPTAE
T1 sequence (O60603 21-784): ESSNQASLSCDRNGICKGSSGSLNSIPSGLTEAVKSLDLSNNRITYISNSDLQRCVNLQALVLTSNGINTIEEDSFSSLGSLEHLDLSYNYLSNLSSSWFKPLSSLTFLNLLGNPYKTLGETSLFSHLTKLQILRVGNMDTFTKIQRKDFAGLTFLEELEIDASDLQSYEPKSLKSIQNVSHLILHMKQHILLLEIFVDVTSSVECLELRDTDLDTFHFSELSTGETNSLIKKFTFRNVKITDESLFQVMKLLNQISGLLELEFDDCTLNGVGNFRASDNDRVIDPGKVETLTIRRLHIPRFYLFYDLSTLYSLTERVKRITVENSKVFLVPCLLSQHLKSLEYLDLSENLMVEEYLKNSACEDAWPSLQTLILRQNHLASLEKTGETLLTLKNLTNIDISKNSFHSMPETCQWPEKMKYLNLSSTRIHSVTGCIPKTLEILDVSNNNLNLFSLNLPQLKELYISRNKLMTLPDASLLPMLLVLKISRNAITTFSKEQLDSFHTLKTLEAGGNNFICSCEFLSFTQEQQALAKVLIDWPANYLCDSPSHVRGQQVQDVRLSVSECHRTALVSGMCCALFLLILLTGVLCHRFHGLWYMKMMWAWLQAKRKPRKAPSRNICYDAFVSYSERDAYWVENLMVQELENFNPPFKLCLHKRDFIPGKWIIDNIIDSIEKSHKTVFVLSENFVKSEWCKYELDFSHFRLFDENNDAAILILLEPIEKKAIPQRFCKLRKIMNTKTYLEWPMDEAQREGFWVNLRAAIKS

Take `O=Cc1cc(-c2cnn(-c3ccc(C(F)(F)F)cc3)c2)cc(F)c1O` [Compound 127, 3-fluoro-2-hydroxy-5-(1-(4-(trifluoromethyl)phenyl)-1H-pyrazol-4-yl)benzaldehyde]: the values for the IC50 on human TLR2 [1], on human TLR2 [2] and on human TLR9 were 0.5 µM, 0.5 µM and 0.1 µM, respectively.

Take `CN1CCN(/N=C/c2cc(C(=O)N3CCC(c4ccc(N5CCCC5)cc4)CC3)cc(F)c2O)CC1` [Compound 163, (3-fluoro-4-hydroxy-5-(((4-methylpiperazin-1-yl)imino)methyl)phenyl)(4-(4-(pyrrolidin-1-yl)phenyl)piperidin-1-yl)methanone]: the IC50 came to 0.4 µM on human TLR2 [1], 0.6 µM at human TLR2 [2] and 0.26 µM at human TLR9.

In the case of `O=Cc1cc(C(=O)Nc2nnc(-c3ccccc3)s2)cc(F)c1O` [Compound 2, 3-fluoro-5-formyl-4-hydroxy-N-(5-phenyl-1,3,4-thiadiazol-2-yl)benzamide], the IC50 was 2.2 µM at human TLR2 [1], 6.7 µM on human TLR2 [2] and approximately 0.5 µM at human TLR9.

Regarding `O=Cc1cc(C(=O)Nc2cnc(N3CCCCC3)s2)cc(F)c1O` [Compound 7, 3-fluoro-5-formyl-4-hydroxy-N-(2-(piperidin-1-yl)thiazol-5-yl)benzamide], the half-inhibitory concentration (IC50) at human TLR2 [1] was more than 100 µM; on human TLR2 [2] it was more than 100 µM; at human TLR9, more than 33 µM.

In the case of `O=Cc1cc(C(=O)Nc2ncc(-c3ccccc3)s2)cc(F)c1O` [Compound 4, 3-fluoro-5-formyl-4-hydroxy-N-(5-phenylthiazol-2-yl)benzamide], the IC50 at human TLR2 [1] was 0.5 µM; on human TLR2 [2], 0.9 µM; on human TLR9, 0.2 µM.

In the case of `Oc1c(F)cc(-c2nc(-c3ccc(N4CCCC4)cc3)ns2)cc1/C=N/N1CCOCC1` [Compound 166, 2-fluoro-6-((morpholinoimino)methyl)-4-(3-(4-(pyrrolidin-1-yl)phenyl)-1,2,4-thiadiazol-5-yl)phenol], the IC50 was 1 µM on human TLR2 [1]; 2.8 µM on human TLR2 [2]; 0.14 µM and 0.18 µM on human TLR9.

Consider `O=Cc1cc(C(=O)Nc2ncc(-c3cccc(N4CCCC4)c3)s2)cc(F)c1O` [Compound 12, 3-fluoro-5-formyl-4-hydroxy-N-(5-(3-(pyrrolidin-1-yl)phenyl)thiazol-2-yl)benzamide], for which the IC50 at human TLR2 [1] was 0.6 µM; at human TLR2 [2] it was 0.6 µM; at human TLR9 it was 0.2 µM.

For the compound `O=C(c1cc(F)c(O)c(/C=N/N2CCOCC2)c1)N1CCC(c2ccc(N3CCCC3)cc2)CC1` [Compound 164, (3-fluoro-4-hydroxy-5-((morpholinoimino)methyl)phenyl)(4-(4-(pyrrolidin-1-yl)phenyl)piperidin-1-yl)methanone], the IC50 at human TLR2 [1] was 0.5 µM; at human TLR2 [2], 1.1 µM; on human TLR9, 0.26 µM.

Turning to `O=Cc1cc(C(=O)Nc2cnc(N3CCCC3)c(C(F)(F)F)c2)cc(F)c1O` [Compound 19, 3-fluoro-5-formyl-4-hydroxy-N-(6-(pyrrolidin-1-yl)-5-(trifluoromethyl)pyridin-3-yl)benzamide], the IC50 at human TLR2 [1] turned out to be 0.3 µM; at human TLR2 [2] it was 0.4 µM; on human TLR9, 0.6 µM.

Turning to `O=Cc1cc(C(=O)Nc2nc(-c3ccc(N4CCCC4)cc3)ns2)cc(F)c1O` [Compound 167, 3-fluoro-5-formyl-4-hydroxy-N-(3-(4-(pyrrolidin-1-yl)phenyl)-1,2,4-thiadiazol-5-yl)benzamide], the results for the IC50 at human TLR2 [1], at human TLR2 [2] and on human TLR9 were 0.6 µM, 1.5 µM and 0.5 µM, respectively.

As to `CN1CCN(/N=C/c2cc(-c3nc(-c4ccc(N5CCCC5)nc4)ns3)cc(F)c2O)CC1` [Compound 165, 2-fluoro-6-(((4-methylpiperazin-1-yl)imino)methyl)-4-(3-(6-(pyrrolidin-1-yl)pyridin-3-yl)-1,2,4-thiadiazol-5-yl)phenol], the figures for the IC50 at human TLR2 [1], on human TLR2 [2] and on human TLR9 were 0.9 µM, 1.1 µM and 0.41 µM, respectively.

On to `O=Cc1cc(C(=O)Nc2ncc(-c3ccc(F)cc3)s2)cc(F)c1O` [Compound 11, 3-fluoro-N-(5-(4-fluorophenyl)thiazol-2-yl)-5-formyl-4-hydroxybenzamide], for which the figures for the IC50 at human TLR2 [1], on human TLR2 [2] and on human TLR9 were 0.7 µM, 1 µM and 0.4 µM, respectively.

As to `O=Cc1cc(NC(=O)c2ncc(-c3ccccc3)s2)cc(F)c1O` [Compound 10, N-(3-fluoro-5-formyl-4-hydroxyphenyl)-5-phenylthiazole-2-carboxamide], the IC50 at human TLR2 [1] was 0.9 µM; on human TLR2 [2], 1.6 µM; at human TLR9, approximately 1 µM.

Values taken from US20240043395A1, “COMPOUNDS AND COMPOSITIONS AS MODULATORS OF TLR SIGNALING” (Neuropore Therapies, Inc., priority 2020, published 2024).
